Measurements taken from article PMC3469757 (Journal of medicinal chemistry, 2012).
pIC50: −log10 of the molar value.

These compounds were tested against T1, human TRPV1 (Homo sapiens, UniProt Q8NER1) (assay: pH assay). Settings: read-out: IC50 [pH]; hTRPV1 in CHO cells, activator pH 6.0 to 6.3.
Format: cell-based

T1 sequence (Q8NER1 whole entry): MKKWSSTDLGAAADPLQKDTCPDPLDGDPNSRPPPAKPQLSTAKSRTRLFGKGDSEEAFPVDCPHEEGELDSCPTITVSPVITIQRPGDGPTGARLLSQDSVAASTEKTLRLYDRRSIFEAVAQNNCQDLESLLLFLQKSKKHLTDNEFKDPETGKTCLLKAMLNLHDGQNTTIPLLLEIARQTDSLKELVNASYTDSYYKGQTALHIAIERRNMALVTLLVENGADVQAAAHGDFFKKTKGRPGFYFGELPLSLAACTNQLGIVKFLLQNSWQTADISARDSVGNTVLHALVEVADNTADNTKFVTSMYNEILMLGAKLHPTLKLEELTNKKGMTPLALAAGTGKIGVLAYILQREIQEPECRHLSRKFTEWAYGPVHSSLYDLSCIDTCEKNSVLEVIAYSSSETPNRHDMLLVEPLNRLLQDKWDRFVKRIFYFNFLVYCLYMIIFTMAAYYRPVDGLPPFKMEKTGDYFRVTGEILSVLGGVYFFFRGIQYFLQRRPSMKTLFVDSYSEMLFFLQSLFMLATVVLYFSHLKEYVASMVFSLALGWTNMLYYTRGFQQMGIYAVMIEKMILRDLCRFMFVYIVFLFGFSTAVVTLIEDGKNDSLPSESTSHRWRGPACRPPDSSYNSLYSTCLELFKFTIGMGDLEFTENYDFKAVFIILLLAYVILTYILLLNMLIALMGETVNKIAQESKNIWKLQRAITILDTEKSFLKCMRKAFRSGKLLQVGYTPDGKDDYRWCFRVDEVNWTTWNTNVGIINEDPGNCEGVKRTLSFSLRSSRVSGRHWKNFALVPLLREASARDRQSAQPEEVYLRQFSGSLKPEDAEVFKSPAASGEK

Question: How did the pIC50 turn out when CC(C(=O)NCc1ccc(C(F)(F)F)nc1N1CCC(O)CC1)c1ccc(NS(C)(=O)=O)c(F)c1 (stereo not shown) [Compound 65, 2-(3-Fluoro-4-(methylsulfonamido)phenyl)-N-((2-(4-hydroxypiperidin-1-yl)-6-(trifluoromethyl)pyridin-3-yl)methyl)propanamide] was run?
Answer: < 5.00

Question: With CC(C(=O)NCc1ccc(C(F)(F)F)nc1N1CCC(N2CCCC2)CC1)c1ccc(NS(C)(=O)=O)c(F)c1 (stereo not shown) [Compound 76, 2-(3-Fluoro-4-(methylsulfonamido)phenyl)-N-((2-(4-(pyrrolidin-1-yl)piperidin-1-yl)-6-(trifluoromethyl)pyridin-3-yl)methyl)propanamide] as the compound, how does the pIC50 read?
Answer: < 5.00

Question: With CC(C(=O)NCc1ccc(C(F)(F)F)nc1N1CCN(C)CC1)c1ccc(NS(C)(=O)=O)c(F)c1 (stereo not shown) [Compound 82, 2-(3-Fluoro-4-(methylsulfonamido)phenyl)-N-((2-(4-methylpiperazin-1-yl)-6-(trifluoromethyl)pyridin-3-yl)methyl)propanamide] as the compound, how does the pIC50 read?
Answer: < 5.00

Question: With CC(C(=O)NCc1ccc(C(F)(F)F)nc1Nc1ccc(F)cc1)c1ccc(NS(C)(=O)=O)c(F)c1 (stereo not shown) [Compound 18, 2-(3-Fluoro-4-(methylsulfonamido)phenyl)-N-((2-((4-fluorophenyl)amino)-6-(trifluoromethyl)pyridin-3-yl)methyl)propanamide] as the compound, how does the pIC50 read?
Answer: < 5.00

Question: CC(C(=O)NCc1ccc(C(F)(F)F)nc1N1CCNCC1)c1ccc(NS(C)(=O)=O)c(F)c1 (stereo not shown) [Compound 81, 2-(3-Fluoro-4-(methylsulfonamido)phenyl)-N-((2-(piperazin-1-yl)-6-(trifluoromethyl)pyridin-3-yl)methyl)propanamide] was tested. Which pIC50 did it give?
Answer: < 5.00

Question: CC(C(=O)NCc1ccc(C(F)(F)F)nc1N1CCS(=O)(=O)CC1)c1ccc(NS(C)(=O)=O)c(F)c1 (stereo not shown) [Compound 99, N-((2-(1,1-Dioxidothiomorpholino)-6-(trifluoromethyl)pyridin-3-yl)methyl)-2-(3-fluoro-4-(methylsulfonamido)phenyl)propanamide] was tested. Which pIC50 did it give?
Answer: < 5.00

Question: How did the pIC50 turn out when CC(C(=O)NCc1ccc(C(F)(F)F)nc1NCc1ccccn1)c1ccc(NS(C)(=O)=O)c(F)c1 (stereo not shown) [Compound 24, 2-(3-Fluoro-4-(methylsulfonamido)phenyl)-N-((2-((pyridin-2-ylmethyl)amino)-6-(trifluoromethyl)pyridin-3-yl)methyl)propanamide] was run?
Answer: < 5.00

Question: CC1CCCN(c2nc(C(F)(F)F)ccc2CNC(=O)C(C)c2ccc(NS(C)(=O)=O)c(F)c2)C1 (stereo not shown) [Compound 48, 2-(3-Fluoro-4-(methylsulfonamido)phenyl)-N-((2-(3-methylpiperidin-1-yl)-6-(trifluoromethyl)pyridin-3-yl)methyl)propanamide] was tested. Which pIC50 did it give?
Answer: < 5.00

Question: CC(C(=O)NCc1ccc(C(F)(F)F)nc1N1CCCCC1C)c1ccc(NS(C)(=O)=O)c(F)c1 (stereo not shown) [Compound 47, 2-(3-Fluoro-4-(methylsulfonamido)phenyl)-N-((2-(2-methylpiperidin-1-yl)-6-(trifluoromethyl)pyridin-3-yl)methyl)propanamide] was tested. Which pIC50 did it give?
Answer: < 5.00

Question: How did the pIC50 turn out when CC(C(=O)NCc1ccc(C(F)(F)F)nc1N1CCN(C2CCCCC2)CC1)c1ccc(NS(C)(=O)=O)c(F)c1 (stereo not shown) [Compound 83, N-((2-(4-Cyclohexylpiperazin-1-yl)-6-(trifluoromethyl)pyridin-3-yl)methyl)-2-(3-fluoro-4-(methylsulfonamido)phenyl)propanamide] was run?
Answer: < 5.00

Question: With CC(C(=O)NCc1ccc(C(F)(F)F)nc1N1CCC(=O)CC1)c1ccc(NS(C)(=O)=O)c(F)c1 (stereo not shown) [Compound 64, 2-(3-Fluoro-4-(methylsulfonamido)phenyl)-N-((2-(4-oxopiperidin-1-yl)-6-(trifluoromethyl)pyridin-3-yl)methyl)propanamide] as the compound, how does the pIC50 read?
Answer: < 5.00

Question: How did the pIC50 turn out when C[C@H](C(=O)NCc1ccc(C(F)(F)F)nc1N1CCC[C@H]1C(=O)N(C)C)c1ccc(NS(C)(=O)=O)c(F)c1 [Compound 36, (S)-1-(3-(((S)-2-(3-Fluoro-4-(methylsulfonamido)phenyl)propanamido)methyl)-6-(trifluoromethyl)pyridin-2-yl)-N,N-dimethylpyrrolidine-2-carboxamide] was run?
Answer: < 5.00

Question: How did the pIC50 turn out when C[C@H](C(=O)NCc1ccc(C(F)(F)F)nc1N1CC[C@@H](O)C1)c1ccc(NS(C)(=O)=O)c(F)c1 [Compound 38, (S)-2-(3-Fluoro-4-(methylsulfonamido)phenyl)-N-((2-((R)-3-hydroxypyrrolidin-1-yl)-6-(trifluoromethyl)pyridin-3-yl)methyl)propanamide] was run?
Answer: < 5.00

Question: With C[C@H](C(=O)NCc1ccc(C(F)(F)F)nc1N1CCC[C@H]1CO)c1ccc(NS(C)(=O)=O)c(F)c1 [Compound 35, (S)-2-(3-Fluoro-4-(methylsulfonamido)phenyl)-N-((2-((S)-2-(hydroxymethyl)pyrrolidin-1-yl)-6-(trifluoromethyl)pyridin-3-yl)methyl)propanamide] as the compound, how does the pIC50 read?
Answer: < 5.00

Question: How did the pIC50 turn out when CC(C)(C)c1ccc(CNC(=S)NCc2ccc(NS(C)(=O)=O)c(F)c2)cc1 [Compound 1, reference compound] was run?
Answer: < 5.00

Question: How did the pIC50 turn out when CC(C(=O)NCc1ccc(C(F)(F)F)nc1N1CCC(N2CCCCC2)CC1)c1ccc(NS(C)(=O)=O)c(F)c1 (stereo not shown) [Compound 75, N-((2-([1,4'-Bipiperidin]-1'-yl)-6-(trifluoromethyl)pyridin-3-yl)methyl)-2-(3-fluoro-4-(methylsulfonamido)phenyl)propanamide] was run?
Answer: < 5.00

Question: How did the pIC50 turn out when CC1CCCN1c1nc(C(F)(F)F)ccc1CNC(=O)[C@@H](C)c1ccc(NS(C)(=O)=O)c(F)c1 (stereo partly drawn) [Compound 34, (2S)-2-(3-Fluoro-4-(methylsulfonamido)phenyl)-N-((2-(2-methylpyrrolidin-1-yl)-6-(trifluoromethyl)pyridin-3-yl)methyl)propanamide] was run?
Answer: < 5.00

Question: How did the pIC50 turn out when O=C(/C=C/c1ccc(C(F)(F)F)nc1N1CCCCC1)Nc1ccc2cccnc2c1 [Compound 3, reference compound] was run?
Answer: < 5.00

Question: How did the pIC50 turn out when CC(C(=O)NCc1ccc(C(F)(F)F)nc1NCc1cccnc1)c1ccc(NS(C)(=O)=O)c(F)c1 (stereo not shown) [Compound 25, 2-(3-Fluoro-4-(methylsulfonamido)phenyl)-N-((2-((pyridin-3-ylmethyl)amino)-6-(trifluoromethyl)pyridin-3-yl)methyl)propanamide] was run?
Answer: < 5.00

Question: CC(C(=O)NCc1ccc(C(F)(F)F)nc1NCc1ccncc1)c1ccc(NS(C)(=O)=O)c(F)c1 (stereo not shown) [Compound 26, 2-(3-Fluoro-4-(methylsulfonamido)phenyl)-N-((2-((pyridin-4-ylmethyl)amino)-6-(trifluoromethyl)pyridin-3-yl)methyl)propanamide] was tested. Which pIC50 did it give?
Answer: < 5.00

Question: CC(C(=O)NCc1ccc(C(F)(F)F)nc1)c1ccc(NS(C)(=O)=O)c(F)c1 (stereo not shown) [Compound 12, 2-(3-Fluoro-4-(methylsulfonamido)phenyl)-N-((6-(trifluoromethyl)pyridin-3-yl)methyl)propanamide] was tested. Which pIC50 did it give?
Answer: < 5.00

Question: How did the pIC50 turn out when CC(C(=O)NCc1ccc(C(F)(F)F)nc1N1CCN(c2ncccc2C(F)(F)F)CC1)c1ccc(NS(C)(=O)=O)c(F)c1 (stereo not shown) [Compound 95, 2-(3-Fluoro-4-(methylsulfonamido)phenyl)-N-((6-(trifluoromethyl)-2-(4-(3-(trifluoromethyl)pyridin-2-yl)piperazin-1-yl)pyridin-3-yl)methyl)propanamide] was run?
Answer: < 5.00

Question: With CC(C)OC1CCN(c2nc(C(F)(F)F)ccc2CNC(=O)C(C)c2ccc(NS(C)(=O)=O)c(F)c2)CC1 (stereo not shown) [Compound 70, 2-(3-Fluoro-4-(methylsulfonamido)phenyl)-N-((2-(4-isopropoxypiperidin-1-yl)-6-(trifluoromethyl)pyridin-3-yl)methyl)propanamide] as the compound, how does the pIC50 read?
Answer: < 5.00

Question: How did the pIC50 turn out when CC(C(=O)NCc1ccc(C(F)(F)F)nc1N1CCN(c2ccncc2)CC1)c1ccc(NS(C)(=O)=O)c(F)c1 (stereo not shown) [Compound 92, 2-(3-Fluoro-4-(methylsulfonamido)phenyl)-N-((2-(4-(pyridin-4-yl)piperazin-1-yl)-6-(trifluoromethyl)pyridin-3-yl)methyl)propanamide] was run?
Answer: < 5.00

Same assay, conditions: versus compound 17

Question: For CC(C(=O)NCc1ccc(C(F)(F)F)nc1N(C)c1ccccc1)c1ccc(NS(C)(=O)=O)c(F)c1 (stereo not shown) [Compound 32, 2-(3-Fluoro-4-(methylsulfonamido)phenyl)-N-((2-(methyl(phenyl)amino)-6-(trifluoromethyl)pyridin-3-yl)methyl)propanamide], which “fold increase in potency for pH compared to phenylamino analogue 17” value is on record?
Answer: 25 fold

The compounds below were run on male NMRI mice (assay: Capsaicin induced hypothermia in mice). Settings: 3 mg/kg intraperitoneal, 15 min post injection, from 37.1 ± 0.1 °C.
Format: in vivo, mouse

Question: Which “body temperature after capsaicin injection” value does the source give for COc1cc(CNC(=O)CCCC/C=C/C(C)C)ccc1O [capsaicin, reference compound] here?
Answer: 34.0 ± 0.1 °C

What follows are compounds tested against T1, human TRPV1 (assay: Capsaicin assay). Settings: hTRPV1 in CHO cells.
Format: cell-based

Question: Which “hTRPV1 antagonism in words” value does the source give for CC(C(=O)NCc1ccc(C(F)(F)F)nc1N1CCNCC1)c1ccc(NS(C)(=O)=O)c(F)c1 (stereo not shown) [Compound 81, 2-(3-Fluoro-4-(methylsulfonamido)phenyl)-N-((2-(piperazin-1-yl)-6-(trifluoromethyl)pyridin-3-yl)methyl)propanamide] here?
Answer: weak antagonist

Question: With CC(C(=O)NCc1ccc(C(F)(F)F)nc1N1CCS(=O)(=O)CC1)c1ccc(NS(C)(=O)=O)c(F)c1 (stereo not shown) [Compound 99, N-((2-(1,1-Dioxidothiomorpholino)-6-(trifluoromethyl)pyridin-3-yl)methyl)-2-(3-fluoro-4-(methylsulfonamido)phenyl)propanamide] as the compound, how does the “hTRPV1 antagonism in words” value read?
Answer: only weak potency

Question: Which “hTRPV1 antagonism in words” value does the source give for CC(C(=O)NCc1ccc(C(F)(F)F)nc1Nc1ccc(Cl)cc1)c1ccc(NS(C)(=O)=O)c(F)c1 (stereo not shown) [Compound 19, N-((2-((4-Chlorophenyl)amino)-6-(trifluoromethyl)pyridin-3-yl)methyl)-2-(3-fluoro-4-(methylsulfonamido)phenyl)propanamide] here?
Answer: devoid of activity

Question: For CC(C(=O)NCc1ccc(C(F)(F)F)nc1)c1ccc(NS(C)(=O)=O)c(F)c1 (stereo not shown) [Compound 12, 2-(3-Fluoro-4-(methylsulfonamido)phenyl)-N-((6-(trifluoromethyl)pyridin-3-yl)methyl)propanamide], which “hTRPV1 antagonism in words” value is on record?
Answer: weak antagonist

Same assay, conditions: hTRPV1 in CHO cells, versus compound 2

Question: How did the “fold more potent than parent 2 for capsaicin antagonism” value turn out when CC(C(=O)NCc1ccc(C(F)(F)F)nc1N1CCOCC1)c1ccc(NS(C)(=O)=O)c(F)c1 (stereo not shown) [Compound 97, 2-(3-Fluoro-4-(methylsulfonamido)phenyl)-N-((2-morpholino-6-(trifluoromethyl)pyridin-3-yl)methyl)propanamide] was run?
Answer: 15 fold

Question: Which “fold more potent than parent 2 for capsaicin antagonism” value does the source give for CC(C(=O)NCc1ccc(C(F)(F)F)nc1N1CCCCC1)c1ccc(NS(C)(=O)=O)c(F)c1 (stereo not shown) [Compound 45, 2-(3-Fluoro-4-(methylsulfonamido)phenyl)-N-((2-(piperidin-1-yl)-6-(trifluoromethyl)pyridin-3-yl)methyl)propanamide] here?
Answer: 46 fold

Same assay, conditions: hTRPV1 in CHO cells, versus compound 3

Question: For C[C@H](C(=O)NCc1ccc(C(F)(F)F)nc1N1CCCCC1)c1ccc(NS(C)(=O)=O)c(F)c1 [Compound 45S, (S)-2-(3-Fluoro-4-(methylsulfonamido)phenyl)-N-((2-(piperidin-1-yl)-6-(trifluoromethyl)pyridin-3-yl)methyl)propanamide], which “fold more potent than lead 3 for capsaicin antagonism” value is on record?
Answer: ca. 15 fold

Same assay, conditions: versus compound 17

Question: CC(C(=O)NCc1ccc(C(F)(F)F)nc1N(C)c1ccccc1)c1ccc(NS(C)(=O)=O)c(F)c1 (stereo not shown) [Compound 32, 2-(3-Fluoro-4-(methylsulfonamido)phenyl)-N-((2-(methyl(phenyl)amino)-6-(trifluoromethyl)pyridin-3-yl)methyl)propanamide] was tested. Which “fold increase in potency for CAP compared to phenylamino analogue 17” value did it give?
Answer: 75 fold
